32 compounds from patent publication US20170210751A1, “PRMT5 INHIBITORS AND USES THEREOF” (Epizyme, Inc., priority 2014, published 2017) can be followed below.

Assay [1] concerns the target T1, PRMT5/MEP50 (Homo sapiens, UniProt O14744).
T1 construct: Flag-PRMT5; made in house; host or cells: Spodoptera frugiperda (SF9) insect cells, baculovirus (pDEST8)
The experiment in a line: PRMT5 Biochemical Assay (PRMT5/MEP50 enzyme assay on peptide substrate, 3H-SAM Flashplate). The note with it: PRMT5/MEP50 4 nM, 3H-SAM 75 nM, peptide 40 nM, 30 min preincubation at 25 degrees Celsius. In a few lines: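 FLAG-PRMT5/His-MEP50 from Sf9 cells (4 nM) preincubated 30 min at 25 °C with compounds, then reacted with 75 nM 3H-SAM and 40 nM biotinylated histone H4 1-15 peptide in Bicine pH 7.6, 1% DMSO. Stopped with 600 uM cold SAM; streptavidin Flashplate capture, scintillation counts; % inhibition fitted to 3- or 4-parameter curve.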

Assay [2] deals with Z-138 cell line. The experiment in a line: Z-138 Proliferation Assay (Cell Titer Glo). In kind it is cell-based. As to conditions: Homo sapiens, 120 h; Z-138 cells, 5 days incubation, ATP (Cell Titer Glo). In a few lines:
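Z-138 cells in RPMI with 10% FBS exposed 5 days at 37 °C to nine-point 3-fold dilutions, top 20 μM final, 0.2% DMSO, triplicate. ATP-based CellTiter-Glo luminescence; IC50 from 4-parameter fit of normalized curves.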

T1 sequence (O14744 with tags, fused parts or gaps): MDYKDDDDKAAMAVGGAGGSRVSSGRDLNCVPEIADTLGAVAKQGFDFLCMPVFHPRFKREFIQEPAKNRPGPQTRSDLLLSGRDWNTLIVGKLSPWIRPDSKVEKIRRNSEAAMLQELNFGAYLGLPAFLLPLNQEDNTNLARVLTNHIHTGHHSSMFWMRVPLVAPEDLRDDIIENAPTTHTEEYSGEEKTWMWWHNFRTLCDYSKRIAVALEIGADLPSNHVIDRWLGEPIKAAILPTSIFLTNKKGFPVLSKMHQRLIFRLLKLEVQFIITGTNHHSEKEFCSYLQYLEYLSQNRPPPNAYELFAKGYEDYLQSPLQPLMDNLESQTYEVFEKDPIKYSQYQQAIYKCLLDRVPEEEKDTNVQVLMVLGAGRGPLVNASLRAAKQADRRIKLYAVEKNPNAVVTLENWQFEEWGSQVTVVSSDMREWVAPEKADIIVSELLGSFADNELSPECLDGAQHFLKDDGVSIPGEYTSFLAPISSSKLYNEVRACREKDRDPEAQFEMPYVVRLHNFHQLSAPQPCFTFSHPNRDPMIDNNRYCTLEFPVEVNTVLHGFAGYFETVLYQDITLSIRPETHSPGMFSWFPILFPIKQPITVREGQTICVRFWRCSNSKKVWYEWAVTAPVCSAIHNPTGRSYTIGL
T1 sequence (Q9BQA1 with tags, fused parts or gaps partner limits assumed): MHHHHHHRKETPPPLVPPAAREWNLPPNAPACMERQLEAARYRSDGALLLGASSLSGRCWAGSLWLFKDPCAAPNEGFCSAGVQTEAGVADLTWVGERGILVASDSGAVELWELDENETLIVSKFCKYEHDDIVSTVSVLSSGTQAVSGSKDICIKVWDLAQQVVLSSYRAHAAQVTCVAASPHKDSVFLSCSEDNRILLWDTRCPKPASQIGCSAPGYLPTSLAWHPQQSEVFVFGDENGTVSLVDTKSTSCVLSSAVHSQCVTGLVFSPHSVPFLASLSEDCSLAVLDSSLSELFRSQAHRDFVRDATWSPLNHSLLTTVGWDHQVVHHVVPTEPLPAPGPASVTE

For the compound `CC(=O)N1CCC(Nc2cc(C(=O)NC[C@H](O)CN3CCc4[nH]nc(-c5ccccc5)c4C3)ncn2)CC1` [Compound 3-12, (S)-6-((1-acetylpiperidin-4-yl)amino)-N-(2-hydroxy-3-(3-phenyl-6,7-dihydro-1H-pyrazolo[4,3-c]pyridin-5(4H)-yl)propyl)pyrimidine-4-carboxamide], the IC50 in assay [1] is over 10 µM. In assay [2], this compound showed a 50% effective concentration (EC50) of over 5 µM.

Regarding `O=C(NC[C@H](O)CN1CCc2[nH]nc(-c3ccccc3)c2C1)c1cc(NC2COC2)ncn1` [Compound 3-17, (S)—N-(2-hydroxy-3-(3-phenyl-6,7-dihydro-1H-pyrazolo[4,3-c]pyridin-5(4H)-yl)propyl)-6-(oxetan-3-ylamino)pyrimidine-4-carboxamide], the half-inhibitory concentration (IC50) in assay [1] is over 10 µM. In addition, the concentration for a half-maximal effect (EC50) in assay [2] was over 5 µM.

As to `CC(=O)N1CCC(Nc2cc(C(=O)NC[C@H](O)CN3CCc4[nH]ncc4C3)ccn2)CC1` [Compound 3-21], in assay [1], the IC50 lay within 1 to 10 µM. In assay [2], the EC50 is over 5 µM.

With `CC(=O)N1CCC(Nc2cc(C(=O)NC[C@H](O)CN3CCc4c(ncn4C)C3)ccn2)CC1` [Compound 3-22, (S)-2-((1-acetylpiperidin-4-yl)amino)-N-(2-hydroxy-3-(1-methyl-6,7-dihydro-1H-imidazo[4,5-c]pyridin-5(4H)-yl)propyl)isonicotinamide], the 50% inhibitory concentration (IC50) in assay [1] was over 10 µM. In addition, the EC50 in assay [2] is over 5 µM.

Regarding `CC(=O)N1CC(Nc2cc(C(=O)NC[C@H](O)CN3CCc4[nH]ncc4C3)ncn2)C1` [Compound 3-23], in assay [1], the 50% inhibitory concentration (IC50) was 1 to 10 µM. In assay [2], this compound had an EC50 of over 5 µM.

With `CC(=O)N1CCC(Nc2cc(C(=O)NC[C@H](O)CN3CCc4ncn(C)c4C3)ccn2)CC1` [Compound 3-24, (S)-2-((1-acetylpiperidin-4-yl)amino)-N-(2-hydroxy-3-(3-methyl-6,7-dihydro-3H-imidazo[4,5-c]pyridin-5(4H)-yl)propyl)isonicotinamide], in assay [1], the IC50 was over 10 µM. The same compound showed an EC50 in assay [2] of over 5 µM.

Take `Cn1cnc2c1CN(C[C@@H](O)CNC(=O)c1cc(NC3COC3)ncn1)CC2` [Compound 3-26, (S)—N-(2-hydroxy-3-(3-methyl-6,7-dihydro-3H-imidazo[4,5-c]pyridin-5(4H)-yl)propyl)-6-(oxetan-3-ylamino)pyrimidine-4-carboxamide]: in assay [1], the IC50 is over 10 µM. Further, the EC50 in assay [2] is over 5 µM.

For `Cn1cc2c(n1)CCN(C[C@@H](O)CNC(=O)c1cc(NC3COC3)ncn1)C2` [Compound 3-27], the 50% inhibitory concentration (IC50) in assay [1] was over 10 µM. This compound also showed an EC50 in assay [2] of over 5 µM.

As for `Cn1cnc2c1CCN(C[C@@H](O)CNC(=O)c1cc(NC3COC3)ncn1)C2` [Compound 3-28], the concentration for half-maximal inhibition (IC50) in assay [1] was over 10 µM. The same compound had an EC50 in assay [2] of over 5 µM.

With `CC(=O)N1CC(Nc2cc(C(=O)NC[C@H](O)CN3CCc4[nH]cnc4C3)ncn2)C1` [Compound 3-33, (S)-6-((1-acetylazetidin-3-yl)amino)-N-(3-(6,7-dihydro-1H-imidazo[4,5-c]pyridin-5(4H)-yl)-2-hydroxypropyl)pyrimidine-4-carboxamide], the IC50 in assay [1] was over 10 µM. The EC50 in assay [2] is over 5 µM.

With `CC(=O)N1CCC(Nc2cc(C(=O)NC[C@H](O)CN3CCc4[nH]cnc4C3)ncn2)CC1` [Compound 3-34, (S)-6-((1-acetylpiperidin-4-yl)amino)-N-(3-(6,7-dihydro-1H-imidazo[4,5-c]pyridin-5(4H)-yl)-2-hydroxypropyl)pyrimidine-4-carboxamide], the IC50 in assay [1] is over 10 µM. Moreover, the EC50 in assay [2] was over 5 µM.

In the case of `CC(=O)N1CCC(Nc2cc(C(=O)NC[C@H](O)CN3CCc4c(ncn4C)C3)ncn2)CC1` [Compound 3-35, (S)-6-((1-acetylpiperidin-4-yl)amino)-N-(2-hydroxy-3-(1-methyl-6,7-dihydro-1H-imidazo[4,5-c]pyridin-5(4H)-yl)propyl)pyrimidine-4-carboxamide], the IC50 in assay [1] was over 10 µM. In assay [2], the EC50 was over 5 µM.

For `CC(=O)N1CCC(Nc2cc(C(=O)NC[C@H](O)CN3CCc4[nH]cnc4C3)ccn2)CC1` [Compound 3-36, (S)-2-((1-acetylpiperidin-4-yl)amino)-N-(3-(6,7-dihydro-1H-imidazo[4,5-c]pyridin-5(4H)-yl)-2-hydroxypropyl)isonicotinamide], the IC50 in assay [1] is over 10 µM. Further, the concentration giving a half-maximal response (EC50) in assay [2] is over 5 µM.

On to `O=C(NC[C@H](O)CN1CCc2[nH]cnc2C1)c1cc(NC2COC2)ncn1` [Compound 3-38, (S)—N-(3-(6,7-dihydro-1H-imidazo[4,5-c]pyridin-5(4H)-yl)-2-hydroxypropyl)-6-(oxetan-3-ylamino)pyrimidine-4-carboxamide], for which, in assay [1], the IC50 was over 10 µM. In addition, in assay [2], the EC50 is over 5 µM.

Turning to `Cn1ncc2c1CCCN2C[C@@H](O)CNC(=O)c1cc(NC2COC2)ncn1` [Compound 3-40], the concentration for half-maximal inhibition (IC50) in assay [1] was over 10 µM. The EC50 in assay [2] was over 5 µM.

On to `Cc1nc2c([nH]1)CCN(C[C@@H](O)CNC(=O)c1cc(NC3COC3)ncn1)C2` [Compound 3-41], for which the half-inhibitory concentration (IC50) in assay [1] was over 10 µM. The EC50 in assay [2] was over 5 µM.

As to `CC(=O)N1CC(Nc2cc(C(=O)NC[C@H](O)CN3CCc4cn[nH]c4C3)ncn2)C1` [Compound 3-44], in assay [1], the IC50 was over 10 µM. The compound also gave an EC50 in assay [2] of over 5 µM.

As to `CC(=O)N1CC(Nc2cc(C(=O)NC[C@H](O)CN3CCc4c(ncn4C)C3)ncn2)C1` [Compound 3-45], the IC50 in assay [1] is over 10 µM. For the same compound, the 50% effective concentration (EC50) in assay [2] was over 5 µM.

With `CC(=O)N1CC(Nc2cc(C(=O)NC[C@H](O)CN3CCCc4c3cnn4C)ncn2)C1` [Compound 3-46], the 50% inhibitory concentration (IC50) in assay [1] is over 10 µM. This compound came in with a half-maximal effective concentration (EC50) in assay [2] of over 5 µM.

`CC(=O)N1CC(Nc2cc(C(=O)NC[C@H](O)CN3CCc4[nH]c(C)nc4C3)ncn2)C1` [Compound 3-47]: the 50% inhibitory concentration (IC50) in assay [1] was over 10 µM. The concentration giving a half-maximal response (EC50) in assay [2] is over 5 µM.

Take `CC(=O)N1CCC(Nc2cc(C(=O)NC[C@H](O)CN3CCc4cn[nH]c4C3)ccn2)CC1` [Compound 3-50]: the IC50 in assay [1] is over 10 µM. This compound showed a 50% effective concentration (EC50) in assay [2] of over 5 µM.

With `CC(=O)N1CCC(Nc2cc(C(=O)NC[C@H](O)CN3CCc4cn[nH]c4C3)ncn2)CC1` [Compound 3-51], the IC50 in assay [1] was over 10 µM. Further, the half-maximal effective concentration (EC50) in assay [2] was over 5 µM.

Consider `CC(=O)N1CCC(Nc2cc(C(=O)NC[C@H](O)CN3CCc4c(cnn4C)C3)ccn2)CC1` [Compound 3-52], for which the concentration for half-maximal inhibition (IC50) in assay [1] was in the range of 1 to 10 µM. Moreover, the concentration giving a half-maximal response (EC50) in assay [2] was over 5 µM.

In the case of `CC(=O)N1CCC(Nc2cc(C(=O)NC[C@H](O)CN3CCc4nn(C)cc4C3)ccn2)CC1` [Compound 3-53], in assay [1], the IC50 lay in the range of 1 to 10 µM. The compound also displayed a half-maximal effective concentration (EC50) in assay [2] of over 5 µM.

Consider `CC(=O)N1CCC(Nc2cc(C(=O)NC[C@H](O)CN3CCc4nc(C)[nH]c4C3)ccn2)CC1` [Compound 3-54], for which, in assay [1], the concentration for half-maximal inhibition (IC50) is over 10 µM. This compound gave an EC50 in assay [2] of over 5 µM.

Turning to `CC(=O)N1CCC(Nc2cc(C(=O)NC[C@H](O)CN3CCc4c(cnn4C)C3)ncn2)CC1` [Compound 3-56], the IC50 in assay [1] is over 10 µM. Also, the concentration giving a half-maximal response (EC50) in assay [2] is over 5 µM.

`CC(=O)N1CCC(Nc2cc(C(=O)NC[C@H](O)CN3CCc4nn(C)cc4C3)ncn2)CC1` [Compound 3-57]: the 50% inhibitory concentration (IC50) in assay [1] is over 10 µM. The concentration giving a half-maximal response (EC50) in assay [2] was over 5 µM.

Turning to `CC(=O)N1CCC(Nc2cc(C(=O)NC[C@H](O)CN3CCCc4c3cnn4C)ncn2)CC1` [Compound 3-58], the 50% inhibitory concentration (IC50) in assay [1] is over 10 µM. In assay [2], this compound had an EC50 of over 5 µM.

On to `Cc1nc2c(o1)CCN(C[C@@H](O)CNC(=O)c1cc(NC3COC3)ncn1)C2` [Compound 4-1, (S)—N-(2-hydroxy-3-(2-methyl-6,7-dihydrooxazolo[4,5-c]pyridin-5(4H)-yl)propyl)-6-(oxetan-3-ylamino)pyrimidine-4-carboxamide], for which, in assay [1], the IC50 was over 10 µM. In assay [2], this compound gave a concentration giving a half-maximal response (EC50) of over 5 µM.

With `CC(=O)N1CC(Nc2cc(C(=O)NC[C@H](O)CN3CCc4oc(C)nc4C3)ncn2)C1` [Compound 4-2, (S)-6-((1-acetylazetidin-3-yl)amino)-N-(2-hydroxy-3-(2-methyl-6,7-dihydrooxazolo[4,5-c]pyridin-5(4H)-yl)propyl)pyrimidine-4-carboxamide], in assay [1], the IC50 is over 10 µM. In assay [2], this compound came in with an EC50 of over 5 µM.

Regarding `CC(=O)N1CCC(Nc2cc(C(=O)NC[C@H](O)CN3CCc4oc(C)nc4C3)ncn2)CC1` [Compound 4-3, (S)-6-((1-acetylpiperidin-4-yl)amino)-N-(2-hydroxy-3-(2-methyl-6,7-dihydrooxazolo[4,5-c]pyridin-5(4H)-yl)propyl)pyrimidine-4-carboxamide], the concentration for half-maximal inhibition (IC50) in assay [1] is over 10 µM. In assay [2], this compound registered an EC50 of over 5 µM.

For the compound `CC(=O)N1CCC(Nc2cc(C(=O)NC[C@H](O)CN3CCc4oc(C)nc4C3)ccn2)CC1` [Compound 4-4, (S)-2-((1-acetylpiperidin-4-yl)amino)-N-(2-hydroxy-3-(2-methyl-6,7-dihydrooxazolo[4,5-c]pyridin-5(4H)-yl)propyl)isonicotinamide], the concentration for half-maximal inhibition (IC50) in assay [1] is over 10 µM. The same compound displayed a 50% effective concentration (EC50) in assay [2] of over 5 µM.

As usually defined, the IC50 is the concentration that inhibits the measured activity by half. Usually EC50 stands for the concentration giving half of the maximal effect. Higher therefore signals weaker potency.
